# Counter-ions that a name gives are not always drawn. Like-named read-outs stand apart in the source and are kept apart here.
# Assays:
# [1] = test system: ADP induced platelet aggregation; test: In vitro inhibition of ADP induced platelet aggregation (aggregometer method of Born, modified by Mustard); assay type: cell-based, rabbit; conditions: Oryctolagus cuniculus
# Procedure: (§1) The aggregometer method of Born [G. V. R. Born: J.Physiol., London, 162, 67 (1962)] as modified by Mustard et al. [J. F. Mustard et al.: J.Lab.Clin.Med., 64, 548 (1964)] was used to assess the in vitro activity of various compounds as to inhibition of collagen and adenosine diphosphate (ADP) induced platelet aggregation. Platelet rich plasma (PRP) was separated by centrifugation from citrated (3.8%) rabbit blood. ADP in final concentration of […] prepared according to the method described by Evans et al. [G. Evans et al.: J.Exp. Med., 128, 877 (1968)] was used to induce aggregation. The test compounds were dissolved in buffer solution so that 0.05 ml added to PRP would yield the desired test concentration. Vehicle control trials were done and compared with aggregation induced in platelet rich plasma containing various concentrations of the test compounds. Dose response curves were obtained, and 50% inhibitive concentration (IC50) values were calculated.
# [2] = test system: collagen induced platelet aggregation; test: In vitro inhibition of collagen induced platelet aggregation (aggregometer method of Born, modified by Mustard); assay type: cell-based, rabbit; conditions: Oryctolagus cuniculus
# Procedure: as §1
# [3] = test system: Neuroleptic activity (Anti apomorphine test); test: Neuroleptic activity (anti apomorphine test); assay type: in vivo, rat; conditions: for neuroleptic activity, in words: rat, in vivo
# Excerpt: No. ED50 (rat, s.c., mg/kg)
# *P. A. J. Janssen et al.: ArzneimittelForschung, 15, 104-117 (1965)
# [4] = test system: blood platelet aggregation; test: Blood platelet anti-aggregation activity (general statements); assay type: cell-based, rabbit; conditions: compared with compound [A] / compounds of U.S. Pat. No. 4,012,515
# Procedure: as §1
# [5] = test system: ADP induced platelet aggregation; test: Ex vivo inhibition of ADP induced aggregation in PRP after oral administration to rats; conditions: Rattus norvegicus, PRP 1 hour after oral administration, read-out: ED50, 50% inhibition of the aggregation (ADP)
# Procedure: (§2) The conjugated ketone compounds [I] were also tested ex vivo in rats where ADP or collagen was used to induce aggregation in PRP samples obtained 1 hour after oral administration. Blood was drawn after dosing and the procedure of platelet aggregation was the same as the in vitro experiments. Inhibitory values were calculated compared with the activity of PRP samples of vehicle treated rats. The dose required to produce 50% inhibition of the aggregation (ED50) was determined by dose response data obtained in this manner.
# [6] = test system: collagen induced platelet aggregation; test: Ex vivo inhibition of collagen induced aggregation in PRP after oral administration to rats; conditions: Rattus norvegicus, PRP 1 hour after oral administration, read-out: ED50, 50% inhibition of the aggregation (collagen)
# Procedure: as §2
# [7] = in vitro, rabbit PRP, ADP induced, Table 1, read-out: Inhibitory activity IC50, ADP
# [8] = in vitro, rabbit PRP, collagen induced, Table 1, read-out: Inhibitory activity IC50, Collagen
# [9] = in vitro, ADP, Table 2, read-out: Blood platelet aggregation inhibitory activity IC50, ADP
# [10] = in vitro, Collagen, Table 2, read-out: Blood platelet aggregation inhibitory activity IC50, Collagen
Structure (SMILES),"IC50 [1, 7] [µg/mL]","IC50 [2, 8] [µg/mL]",further results
CCN(CC)C/C=C/C(=O)c1cccs1 [Compound 34],3,2.3,
CCCCN(C/C=C/C(=O)c1ccccc1)CCCC [Compound 6],5.2,2.7,
"O=C(/C=C/CN1CCC(O)(c2cccc(C(F)(F)F)c2)CC1)c1ccc(F)cc1 [A, reference compound]",,,"IC50 [1, 9]: 9 µg/mL; IC50 [2, 10]: 3.5 µg/mL; ED50 ([3]; Rattus norvegicus, sc, read-out: Neuroleptic activity (Anti apomorphine test) ED50): 0.1 mg/kg"
CCN(CC)C/C=C/C(=O)c1ccccc1C(F)(F)F [Compound 27],3,4.2,
CCN(CC)CC/C=C/C(=O)c1ccccc1 [Compound 11],6,1.8,
"COc1ccc(Cc2nccc3cc(OC)c(OC)cc23)cc1OC [Papaverine, reference compound]",,,"IC50 ([1]; read-out: Inhibitory activity IC50, ADP): 65 µg/mL; IC50 ([2]; read-out: Inhibitory activity IC50, Collagen): 60 µg/mL"
CCN(CC)C/C=C/C(=O)c1ccccc1Cl [Compound 12],3.1,2.8,
CSc1ccc(C(=O)/C=C/CN(C)C)cc1 [Compound 22],1.2,2.2,
CCN(CC)C/C=C/C(=O)c1ccc(Cl)cc1 [Compound 14],1.6,2.5,
CCN(CC)C/C=C/C(=O)c1ccc2c(c1)OCO2 [Compound 20],1.3,3.7,
CCN(CC)C/C=C/C(=O)c1ccc2ccccc2c1 [Compound 29],1.25,1.7,
"CCN(CC)C/C=C/C(=O)c1ccccc1 [Compound 3, N-(4-Phenyl-4-oxo-2-trans-butenyl)-N,N-diethylamine hydrobromide]",3.3,1.5,"IC50 [1, 9]: 3.3 µg/mL; blood platelet anti-aggregation activity, in words [4]: more potent than the compound [A] in blood platelet anti-aggregation activity; ED50 [5]: 0.3 mg/kg; ED50 [6]: 3 mg/kg; IC50 [2, 10]: 1.5 µg/mL; neuroleptic activity, in words [3]: does not produce any slight degree of neuroleptic activity; neuroleptic activity, in words ([3]; sc): No effect at 10 mg/kg"
CCN(CC)C/C=C/C(=O)c1ccc(OC)cc1 [Compound 19],3.7,3.5,
CCCN(C/C=C/C(=O)c1ccccc1)CCC [Compound 4],2.5,1.3,
CCN(CC)C/C=C/C(=O)c1ccc(C)cc1 [Compound 17],2.3,1.5,
CCCN(C/C=C/C(=O)c1ccc(SC)cc1)CCC [Compound 24],3.6,2.6,
CN(C)C/C=C/C(=O)c1ccccc1 [Compound 1],3.3,2,
O=C(/C=C/CN1CC2CCC(CC2)C1)c1ccccc1 [Compound 36],2.7,1.2,
CCN(C)C/C=C/C(=O)c1ccccc1 [Compound 2],3,2.2,
O=C(/C=C/CN1CCCCC1)c1ccccc1 [Compound 10],5.2,3.2,ED50 [6]: 2 mg/kg
CC(C)N(C/C=C/C(=O)c1ccccc1)C(C)C [Compound 5],3.7,1.6,
CN(C/C=C/C(=O)c1ccccc1)C1CCCCC1 [Compound 8],1.8,3.7,
CN(C/C=C/C(=O)c1ccccc1)C12CC3CC(CC(C3)C1)C2 [Compound 7],3.6,2.4,
CCN(CC)C/C=C/C(=O)c1ccc(SC)cc1 [Compound 23],1.4,2.4,
CCN(CC)C/C=C/C(=O)c1ccco1 [Compound 31],3,1.8,
CCCCCCN(C)C/C=C/C(=O)c1ccco1 [Compound 32],4.5,5.8,

# More lines, main results first:
"IC50 [1, 7] [µg/mL]","IC50 [2, 8] [µg/mL]",Structure (SMILES),further results
2.5,1.2,O=C(/C=C/CN1CCCC1)c1ccccc1 [Compound 9],
2.7,3.1,O=C(/C=C/CN1CCCCC1)c1ccc(C(F)(F)F)cc1 [Compound 28],
2.8,1.8,O=C(/C=C/CN1CCCCC1)c1cccs1 [Compound 35],
3.2,3.7,CSc1ccccc1C(=O)/C=C/CN1CCCCC1 [Compound 21],
3.8,2.2,O=C(/C=C/CN1CCCCC1)c1ccco1 [Compound 33],
2.2,2.2,O=C(/C=C/CN1CCCCC1)c1ccc2ccccc2c1 [Compound 30],
3.1,3.1,O=C(/C=C/CN1CCCCC1)c1cccc(Cl)c1 [Compound 13],
4.8,1.6,O=C(/C=C/CN1CCCCC1)c1ccc(Cl)cc1 [Compound 15],
1.2,1.5,CSc1ccc(C(=O)/C=C/CN2CCCCC2)cc1 [Compound 26],
3.2,3,O=C(/C=C/CN1CCCCC1)c1ccc(Br)cc1 [Compound 16],
3,1.1,CSc1ccc(C(=O)/C=C/CN2CCCC2)cc1 [Compound 25],
2,3.4,Cc1ccc(C(=O)/C=C/CN2CCCCC2)cc1 [Compound 18],
